Assay results published in patent EP0137426A2, “2-Mercaptothiazole derivatives, process for their preparation and utilization of 2-mercaptothiazole derivatives in pharmaceutical compounds” (BAYER AG, priority 1983, dated 1985).

Columns and labels:
[1] = system: TXA2; assay: Inhibition of thromboxane-induced isometric contraction of rabbit aortic strips (TXA2 generated from washed human platelets); format: cell-based, Kaninchen; details: Oryctolagus cuniculus, Platelet, thromboxane-induced vessel contraction, read-out: Hemmung (%) (x̄ ± SEM); for inhibition at 30 µg/mL: Konzentration 3 x 10^-5 g/ml
Procedure: Gefäßkonstriktorische Wirkung
Die gefäßkonstriktorische Wirkung von Thromboxan wird mit Hilfe der isometrischen Kontraktion von Kaninchenaortenstreifen gemessen (Furchtgott, R. F; Bhadrakom, S. J., Pharmacol. Exp. Ther. 108, 129 - 143, 1953). Männliche Kaninchen (Russen, Gewicht 1,8 - 2 kg) werden mit Pento- -barbital getötet. Die Brustaorta wird entnommen und spiral--förmig aufgeschnitten. Die Streifen (Breite 2 - 3 mm, Länge 3 cm) werden unter einer Spannung von 2 g in 10 ml - Organbädern, die Carbogen durchperlten Krebs-Henseleit-Puffer von 37°C enthalten, suspendiert. Zur Erhöhung der Spezifität der Methode enthält der Puffer folgende Inhibitoren (jeweils 100 µg/l): Propanololhydrochlorid, Phentolamin, Cyproheptadin, Atropin, Mebhydrolin und Indometacin. Die Kontraktionen werden nach Erreichen eines konstanten Basaltonus durch TXA2, generiert aus gewaschenen Human-Thrombozyten, ausgelöst.
Zur Präparation der Thrombozytensuspension wird Humanblut in 1 %iger EDTA-Lösung aufgenommen und bei 150 G 20 Minuten lang zentrifugiert. Das plättchenreiche Plasma wird abgehebert und bei 750 G für 20 Minuten zentrifugiert. Das plättchenarme Plasma wird abdekantiert und die verbleibenden Plättchen in Puffer (0,15 M NaCl, 0,15 M Tris/ HC1 pH 7.4, 77 mM EDTA; 90 : 8 : 2) aufgenommen.
Die Thromboxan-Generation erfolgt durch Stimulation der Plättchen mit Thrombin bei 37°C unter Rühren. Nach 30 sec wird die Plättchensuspension zu dem mit Prüfsubstanz bzw. Lösungsmittel vorbehandelten Aortenstreifen gegeben und damit die Kontraktionen ausgelöst. Die prozentuale Hemmung errechnet sich aus den entsprechenden Ausschlägen.
An den in der folgenden Tabelle 1 genannten Verbindungen wurde die spezifische Hemmung der durch Thromboxan induzierten Gefäßkontraktionen bestimmt.

[2] = system: Thrombozyten; assay: Inhibition of collagen-induced platelet aggregation in platelet-rich plasma (turbidimetric, Born); format: cell-based; details: Homo sapiens, Konzentration 3 x 10^-5 g/ml, PRP, 37°C, read-out: Hemmung (%) (x̄ ± SEM)
Procedure: Thrombocytenaggregationshemmung
Für die Bestimmung der thrombocytenaggregationshemmenden Wirkung wird Blut von gesunden Spendern, die mindestens 14 Tage lang kein Medikament eingenommen hatten, verwendet. Das Blut wird in 3.8 %iger Natriumcitratlösung aufgenommen. Plättchenreiches Plasma (PRP) wird durch 20 min. lange Zentrifugation bei 150 G bei Raumtemperatur gewonnen (Jürgens/Beller: Klinische Methoden der Blutgerinnungsanalyse; Thieme-Verlag, Stuttgart 1959). Die Plättchenaggregation wird nach der turbidometrischen Methode (Born, G. V. R.: J. Physiol. 162 67, 1962) im Aggregometer bei 37°C bestimmt. Hierzu wird PRP mit Prüfsubstanz bei 37°C inkubiert und anschließend die Aggregation durch Zugabe einer Kollagensuspension ausgelöst. Die prozentuale Hemmung errechnet sich aus den entsprechenden Ausschlägen.
An den in der folgenden Tabelle 2 genannten Verbindungen wurde die Hemmung der Kollagen-induzierten Thrombozytenaggregation untersucht.

[3] = system: TXA2; details: literature: Tanaka, Harada, Katori, Prostaglandins 17, 235, 1979; cited from earlier work

SMILES	inhibition at 30 µg/mL [1]	inhibition at 30 µg/mL [2]	other results
O=C(O)CCCSc1nc2ccccc2s1 [Beispiel 9]	84 ± 3%	52%	inhibition at 100 µg/mL ([1]; Konzentration 1 x 10^-4 g/ml): 100%; inhibition at 10 µg/mL ([1]; Konzentration 1 x 10^-5 g/ml): 58 ± 7%; inhibition at 1 µg/mL ([1]; Konzentration 1 x 10^-6 g/ml): 16 ± 7%; inhibition at 3 µg/mL ([1]; Konzentration 3 x 10^-6 g/ml): 34 ± 6%
O=C(O)CCCSc1nc2cc(F)c(F)cc2s1 [Beispiel 11a]	82 ± 1%	–	–
O=C(O)CCCSc1nc(Cl)c(Cl)s1 [Beispiel 21]	59 ± 6%	69%	–
O=C(O)CCCCSc1nc(Cl)c(Cl)s1 [Beispiel 23]	47 ± 10%	–	–
O=C(O)CCCCSc1nc2ccccc2s1 [Beispiel 25]	31 ± 18%	–	–
CCOC(=O)c1c(C)cc2c(CO)n[nH]c(=O)c2c1C [Phthalazinol]	–	–	Wirkung als spezifischer TXA2-Antagonist [3]: nicht als spezifischer TXA2-Antagonist
